Patent publication US20200221654A9, “APPLICATIONS OF ROOT-ADMINISTERED CHEMICAL HYBRIDIZING AGENTS IN PLANT BREEDING” (BAYER CROPSCIENCE AKTIENGESELLSCHAFT, priority 2016, published 2020)

Tests used:
Format in all cases: in vivo
[1] = test system: Wheat plants of the wheat varieties JB Asano and KWS Target; experiment: Male sterility after weekly root application (watering) of WL84811 to potted wheat plants, seed set of bagged ears (Example 2); settings: for Average sterility relative to control after CHA: 1.0 mg/plant WL84811 in 100 ml water per treatment, 11 weekly root treatments (total 11.0 mg/plant), Zadok stage 31 to 65
Method: Wheat plants of the wheat varieties JB Asano and KWS Target were grown in the greenhouse in standard planting pots, bottom perforated, edge length 12 cm, height 13 cm, with one plant per pot. Twelve pots were placed into a plastic tray, bottom non-perforated with fleece inlay. Sandy loam from the field was filled into the pots ca. 2 cm below edge. Plants were grown under standard growing conditions with respect to fertilizer, watering, disease and light management. Each plant per pot was reduced to 4 tillers. The treatment was watering each pot with 0.0 mg (control) or 1.0 mg WL84811 in 100 ml tap water per pot. Each treatment was repeated on 2 plants per variety, watering with the treatment was done once a week for 11 weeks starting at Zadoks growth stage 31 until growth stage 65 of the control group. Ears were bagged to avoid unwanted cross-pollination. Bags were removed at beginning of grain filling (Zadoks stage 75 and higher), seed set was determined at kernel maturity of the control group. When ears had set seed, the ears were threshed by hand and the kernels per plant were counted. A wheat ear is called completely sterile (=100% sterility) when no kernel was developed on a bagged ear. The average number of grains per plant of the control plants was set to 0% sterility.

[2] = test system: Wheat plants of the wheat varieties JB Asano and Apache; experiment: Female fertility: seed set of Clofencet-treated male sterile plants after pollination with pollen from an untreated control plant (Example 3); settings: for Average seed set of Clofencet treated plants after pollination with wheat pollen (rel. to control): 1 root treatment, Zadok stage 31
Excerpt: Male sterile plants generated by Clofencet treatment as described in Example 1 were used. Before single bagging the 4 ears of each plant at Zadoks stages 55-59, flowers were clipped to facilitate pollination. At flowering time (spikelets wide open) three male-sterile ears (no pollen in the transparent bags) were pollinated with pollen from an untreated control plant of the same wheat variety. One sterile ear was not pollinated to cross check the efficacy of the Clofencet treatment. Bags were removed at beginning of grain filling (Zadoks stage 75 and higher), seed set was determined at kernel maturity. If ears had set seed, the ears were threshed with a hand-threshing device (Baumann Dreschhexe #4.701.200) and the kernels per plant were counted. The average number of grains per plant of the control plants was set to 100% seed set.

[3] = test system: Wheat plants of the wheat varieties JB Asano and Apache; experiment: Male sterility after a single root application (watering) of Clofencet to potted wheat plants, seed set of bagged ears (Example 1); settings: for Average sterility relative to control: 1 root treatment, Zadok stage 31
Method: Wheat plants of the wheat varieties JB Asano and Apache were grown in the greenhouse in standard planting pots, bottom perforated, edge length 12 cm, height 13 cm, with one plant per pot. Twelve pots were placed into a plastic tray, bottom non-perforated with fleece inlay (e.g. available at Hermann Meyer KG unter article no. 44 54 11). Standard greenhouse growing substrate soil (bedding substrate 1 of Klasmann-Deilmann GmbH) was filled into the pot ca. 2 cm below edge. Plants were grown under standard growing conditions with respect to fertilizer, watering, disease and light management. Each plant was reduced to 4 tillers. The necessary active amount of Clofencet per plant was calculated according to the standard foliar spray application protocol of 5.42 kg per hectare assuming 400 ears per square meter taking the higher tiller number of potted plants into account (average number of ears per plant in the field is typically 1.15 but it was 4 in our potted plants, so the dose rate for root application per plant, i.e. per pot, was adjusted upward). At Zadoks growth stage 31 the plants were watered with 0.0 mg (control), 10.84 mg, 16.26 mg and 21.68 mg, respectively, of Clofencet in 200 ml tap water per pot. Each treatment was repeated on 12 plants, whereas the highest concentration was repeated on 24 plants. Before flowering time (Zadoks stage 57 of control group) ears were bagged to avoid unwanted cross-pollination. Bags were removed at beginning of grain filling (Zadoks stage 75 and higher), seed set was determined at kernel ripeness of the control group. When ears carried mature seeds, the ears were threshed with a hand-threshing device (Baumann Dreschhexe #4.701.200) and the kernels per plant were counted. A wheat ear is called completely sterile (=100% sterility) when no kernel developed on a bagged ear. The average number of grains per plant of the control plants was set to 0% sterility.

[4] = variety Apache, 10.84 mg/plant Clofencet in 200 ml water
[5] = variety Apache, 16.26 mg/plant Clofencet in 200 ml water
[6] = variety Apache, 21.68 mg/plant Clofencet in 200 ml water
[7] = variety JB Asano, 10.84 mg/plant Clofencet in 200 ml water
[8] = variety JB Asano, 16.26 mg/plant Clofencet in 200 ml water
[9] = variety JB Asano, 21.68 mg/plant Clofencet in 200 ml water

## O=C(O)C1CNC1 [WL84811, azetidine-3-carboxylic acid]
[1]; regular weekly watering with 1.0 mg, root treatment
  generation of male sterility: very effective to generate male sterility
[1]; variety JB Asano
  Average sterility relative to control after CHA: 100%
[1]; variety KWS Target
  Average sterility relative to control after CHA: 100%
[1]; weekly 1.0 mg root treatment, bagged before flowering
  seed set of treated plants bagged before flowering: No plant

## CCc1c(C(=O)O)c(=O)cnn1-c1ccc(Cl)cc1 [Clofencet, 2-(4-chlorophenyl)-3-ethyl-2,5-dihydro-5-oxopyridazine-4-carboxylic acid]
[2]; root treatment once, pollinated with pollen of untreated control plants
  female fertility of the treated plants: does not harm the female fertility
[2]; variety Apache
  seed set compared to the control with 100% seed set: even seems to enhance seed set
[2]; [4]
  Average seed set of Clofencet treated plants after pollination with wheat pollen (rel. to control): 101%
[2]; [5]
  Average seed set of Clofencet treated plants after pollination with wheat pollen (rel. to control): 115%
[2]; [6]
  Average seed set of Clofencet treated plants after pollination with wheat pollen (rel. to control): 107%
[2]; [7]
  Average seed set of Clofencet treated plants after pollination with wheat pollen (rel. to control): 98%
[2]; [8]
  Average seed set of Clofencet treated plants after pollination with wheat pollen (rel. to control): 94%
[2]; [9]
  Average seed set of Clofencet treated plants after pollination with wheat pollen (rel. to control): 75%
[3]; doses of active substance higher than 21.68 mg per plant
  further effect on male sterility at higher doses (data not shown): do not have any further positive effect
[3]; single root application dose of 10.84 mg per plant with four tillers at growth stage 31
  male sterility: satisfying amount of average male sterility
[3]; single root application of 16.26 mg per plant at growth stage 31
  male sterility: ~100%
[3]; [4]
  Average sterility relative to control: 91.88%
[3]; [5]
  Average sterility relative to control: 98.69%
[3]; [6]
  Average sterility relative to control: 99.64%
[3]; [7]
  Average sterility relative to control: 94.72%
[3]; [8]
  Average sterility relative to control: 99.96%
[3]; [9]
  Average sterility relative to control: 98.65%
[3]; watered once with an active dose of 16.26 mg or more in Zadoks stage 31
  seed set of bagged plants: Almost no plants
